Reference: patent US11040027B2, “Protein kinase inhibitors for promoting liver regeneration or reducing or preventing hepatocyte death” (HEPAREGENIX GMBH, priority 2017, dated 2021)

Assays:
[1] = biological target: BRaf (Homo sapiens, UniProt P15056); assay: KINOMEscan competition binding assay, selectivity BRaf versus MKK4; conditions: Test conc. 0.1 μM; ratio of percent of control; N/E* per footnote
[2] = biological target: T1, MKK4 active (Homo sapiens, UniProt P45985); assay: Radiometric protein kinase assay, MKK4 active; assay type: biochemical; conditions: substrate JNK1 KRKR, ATP 0.2 μM, read-out: MKK4 (potency derived from IC50-values)
T1 construct: purchased ProQinase 0948-0000-1
T1 sequence (P45985 1-399): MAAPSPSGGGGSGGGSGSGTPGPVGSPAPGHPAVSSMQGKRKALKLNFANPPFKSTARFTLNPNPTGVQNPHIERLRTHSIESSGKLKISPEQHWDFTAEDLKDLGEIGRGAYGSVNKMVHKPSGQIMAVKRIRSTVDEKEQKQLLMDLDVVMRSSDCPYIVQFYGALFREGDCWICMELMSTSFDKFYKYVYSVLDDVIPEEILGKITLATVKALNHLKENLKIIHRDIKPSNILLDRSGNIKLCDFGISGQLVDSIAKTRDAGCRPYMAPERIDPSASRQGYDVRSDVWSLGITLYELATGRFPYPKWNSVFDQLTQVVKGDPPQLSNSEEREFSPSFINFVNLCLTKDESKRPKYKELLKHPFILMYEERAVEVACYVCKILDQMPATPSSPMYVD
Experimental: (§1) A radiometric protein kinase assay was used for measuring the kinase activity of the respective protein kinases. All kinase assays were performed in 96-well polypropylene plates. After the reactions were stopped, the assay mixtures were transferred to 96-well MSFC filter-plates (Millipore). The reaction mix was passed through the filter membrane by aspiration, the membrane was washed 3 times with 150 mM H3PO4, once with ethanol, dried and liquid scintillation cocktail was added. Radioactivity was determined by counting of the samples in a Microbeta multiwell scintillation counter (Wallac).
(§2) b) Single Kinases • 20 μl standard assay buffer • 5 μl compound in 10% DMSO • 20 μl enzyme-substrate mix • 10 μl of substrate solution
(§3) The reaction cocktails were incubated at 30° C. for 30 minutes.

[3] = biological target: T2, MEKK2 (Homo sapiens, UniProt Q9Y2U5); assay: Radiometric protein kinase assay, MEKK2; assay type: biochemical; conditions: substrate Casein, ATP 0.2 μM; read-out: MEKK2 (potency derived from IC50-values)
T2 construct: purchased ProQinase 0583-0000-1
T2 sequence (Q9Y2U5 1-619): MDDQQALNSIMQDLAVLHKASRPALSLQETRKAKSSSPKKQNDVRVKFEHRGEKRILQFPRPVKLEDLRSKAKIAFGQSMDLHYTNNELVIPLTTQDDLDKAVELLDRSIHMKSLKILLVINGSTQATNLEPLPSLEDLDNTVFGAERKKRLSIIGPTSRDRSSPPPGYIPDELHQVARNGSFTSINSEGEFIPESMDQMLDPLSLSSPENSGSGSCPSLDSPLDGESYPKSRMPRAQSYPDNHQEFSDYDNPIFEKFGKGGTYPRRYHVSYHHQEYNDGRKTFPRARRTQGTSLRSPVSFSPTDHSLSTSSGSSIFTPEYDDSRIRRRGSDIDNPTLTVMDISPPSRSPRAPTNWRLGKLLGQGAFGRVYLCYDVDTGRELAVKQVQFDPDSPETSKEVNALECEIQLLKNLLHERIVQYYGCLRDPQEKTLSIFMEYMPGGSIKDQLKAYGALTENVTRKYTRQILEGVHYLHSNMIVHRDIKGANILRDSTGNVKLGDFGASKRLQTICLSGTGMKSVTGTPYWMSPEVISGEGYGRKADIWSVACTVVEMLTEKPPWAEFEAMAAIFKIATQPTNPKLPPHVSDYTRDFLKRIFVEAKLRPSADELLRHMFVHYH
Experimental: as §1, §2, §3

[4] = biological target: T3, MKK4 (Homo sapiens, UniProt P45985); assay: KINOMEscan competition binding assay, MKK4; conditions: read-out: Potency MKK4 (derived from % of control values, PoC)
T3 sequence (P45985 84-399): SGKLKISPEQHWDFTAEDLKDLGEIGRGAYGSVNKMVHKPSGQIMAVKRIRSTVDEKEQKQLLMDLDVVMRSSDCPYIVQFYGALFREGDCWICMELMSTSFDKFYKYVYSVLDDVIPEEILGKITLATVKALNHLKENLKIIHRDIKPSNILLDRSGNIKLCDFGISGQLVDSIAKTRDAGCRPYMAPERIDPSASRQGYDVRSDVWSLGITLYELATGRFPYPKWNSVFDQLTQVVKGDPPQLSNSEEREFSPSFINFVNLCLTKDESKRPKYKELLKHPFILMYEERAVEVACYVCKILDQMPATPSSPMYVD
Experimental: (§4) The assay was performed by combining three components: DNA-tagged kinase; immobilized ligand; and a test compound. The ability of the test compound to compete with the immobilized ligand was measured via quantitative PCR of the DNA tag.
(§5) For investigation of the affinity to MKK4, MKK7 and JNK1, the kinases were produced in HEK-293 cells and subsequently tagged with DNA for qPCR detection. […] The liganded beads were blocked with excess biotin and washed with blocking buffer (SEABLOCK™ (Pierce), 1% BSA, 0.05% TWEEN®20, 1 mM DTT) to remove unbound ligand and to reduce nonspecific binding. […] All reactions were performed in polystyrene 96-well plates in a final volume of 0.135 mL. […] The kinase concentration in the eluates was measured by qPCR.
(§6) The test compounds were provided as 10 mM stock solutions. The test solutions at indicated final concentrations were prepared at DiscoverX.

[5] = biological target: JNK1 (Homo sapiens, UniProt P45983); assay: KINOMEscan competition binding assay, selectivity JNK1 versus MKK4; conditions: Test conc 0.1 μM; ratio of percent of control; N/E* = PoC for JNK1 = 100
Experimental: as §4, §5, §6

[6] = biological target: T4, MKK7 (Homo sapiens, UniProt O14733); assay: KINOMEscan competition binding assay, selectivity MKK7 versus MKK4; conditions: Test conc. 0.1 μM; ratio of percent of control; N/E* per footnote
T4 sequence (O14733 1-419): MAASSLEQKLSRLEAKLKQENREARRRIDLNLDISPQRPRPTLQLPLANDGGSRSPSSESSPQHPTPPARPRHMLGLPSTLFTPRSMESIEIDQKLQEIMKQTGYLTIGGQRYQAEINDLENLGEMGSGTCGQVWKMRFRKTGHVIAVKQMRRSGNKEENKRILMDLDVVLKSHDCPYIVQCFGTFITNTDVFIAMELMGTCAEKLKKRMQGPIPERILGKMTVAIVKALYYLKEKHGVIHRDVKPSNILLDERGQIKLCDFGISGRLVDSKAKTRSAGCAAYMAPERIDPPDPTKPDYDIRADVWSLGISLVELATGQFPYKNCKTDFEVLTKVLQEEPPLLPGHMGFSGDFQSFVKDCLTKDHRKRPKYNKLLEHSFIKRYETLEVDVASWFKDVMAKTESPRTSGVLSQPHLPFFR
Experimental: as §4, §5, §6

[7] = test system: C57BL/6N female mice; assay: In vivo survival study after Jo2 antibody injection; conditions: 30 mg/kg oral gavage 1 h before i.p. 0.8 μg/g Jo2 antibody; versus vehicle only; 24 h; FIG. 1
Experimental: C57BL/6N female mice, age 6-9 weeks, purchased from Charles River Laboratories, Research Models and Services, Germany GmbH (Sulzfeld), were housed in accordance with the institutional guidelines of the University of TObingen, Germany. All animal experiments were approved by the German legal authorities.
Three experiments with n=3, n=4 and n=6 animals per group were performed. At time point t=−1 h), mice were dosed by oral gavage with either 30 mg/kg of compound, mixed in 2% hydroxymethylcellulose, pH 4.0) or vehicle only. One hour later (t=0 h), all animals were intraperitoneally (i.p.) injected with 0.8 μg/g mouse weight of Jo2 antibody (BD Pharmingen, San Diego, Calif.) diluted in 0.9% NaCl.
Mice were continuously monitored and survival was monitored all 15 min. After 24 h, all surviving animals were sacrificed.

Sequence of JNK1 (P45983 1-384 isoform P45983-2): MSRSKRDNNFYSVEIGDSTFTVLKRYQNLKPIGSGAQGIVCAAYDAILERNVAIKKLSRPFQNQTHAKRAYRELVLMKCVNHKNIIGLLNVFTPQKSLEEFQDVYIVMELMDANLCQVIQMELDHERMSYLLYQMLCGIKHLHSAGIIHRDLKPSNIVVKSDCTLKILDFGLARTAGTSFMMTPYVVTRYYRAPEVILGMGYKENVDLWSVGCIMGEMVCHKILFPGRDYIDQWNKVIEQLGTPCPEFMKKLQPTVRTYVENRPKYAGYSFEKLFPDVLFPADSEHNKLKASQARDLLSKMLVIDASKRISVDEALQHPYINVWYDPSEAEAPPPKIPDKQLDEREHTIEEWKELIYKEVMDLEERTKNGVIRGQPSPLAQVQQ
Sequence of BRaf (P15056 whole entry): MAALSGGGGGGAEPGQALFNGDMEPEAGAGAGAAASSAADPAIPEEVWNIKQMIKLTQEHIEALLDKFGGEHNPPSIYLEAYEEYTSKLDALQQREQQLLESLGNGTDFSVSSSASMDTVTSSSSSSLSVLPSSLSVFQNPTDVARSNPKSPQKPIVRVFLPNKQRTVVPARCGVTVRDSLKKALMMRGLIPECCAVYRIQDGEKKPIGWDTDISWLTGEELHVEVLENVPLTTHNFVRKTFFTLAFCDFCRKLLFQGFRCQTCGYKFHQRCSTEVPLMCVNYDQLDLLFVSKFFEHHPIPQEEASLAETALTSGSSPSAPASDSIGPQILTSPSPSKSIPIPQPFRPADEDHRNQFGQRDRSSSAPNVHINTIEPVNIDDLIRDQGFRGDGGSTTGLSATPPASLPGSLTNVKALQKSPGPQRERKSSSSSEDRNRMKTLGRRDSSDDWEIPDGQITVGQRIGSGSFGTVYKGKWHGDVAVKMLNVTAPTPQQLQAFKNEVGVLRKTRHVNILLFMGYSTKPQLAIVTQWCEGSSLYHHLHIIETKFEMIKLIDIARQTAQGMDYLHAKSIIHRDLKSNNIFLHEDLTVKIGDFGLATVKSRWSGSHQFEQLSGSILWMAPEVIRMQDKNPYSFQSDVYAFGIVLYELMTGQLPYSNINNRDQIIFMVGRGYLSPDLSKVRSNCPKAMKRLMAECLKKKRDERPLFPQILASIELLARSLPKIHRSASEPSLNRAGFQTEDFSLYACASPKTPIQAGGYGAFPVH

SMILES | Selectivity BRaf/MKK4 [1] | IC50 [2] [µM] | IC50 [3] [µM] | remaining binding at 0.1 µM [4] [%] | Selectivity JNK1/MKK4 [5] | Selectivity MKK7/MKK4 [6] | survival rate [7]
CS(=O)(=O)Nc1cccc(C(=O)c2c[nH]c3ncc(-c4ccc5c(c4)OCCO5)cc23)c1F [Example 36, N-(3-(5-(2,3-Dihydrobenzo[b][1,4]dioxin-6-yl)-1H-pyrrolo[2,3-b]pyridine-3-carbonyl)-2-fluorophenyl)methanesulfonamide] | 18.8 | > 10 | > 10 | < 10 | N/E* (PoC for JNK1 = 100) | 19.6 | 
CCCS(=O)(=O)Nc1ccc(F)c(C(=O)c2c[nH]c3ncc(-c4ccc(Cl)cc4)cc23)c1F [Example 2, Propane-1-sulfonic acid {3-[5-(4-chloro-phenyl)-1H-pyrrolo[2,3-b]pyridine-3-carbonyl]-2,4-difluoro-phenyl}-amide] |  |  |  |  |  |  | significantly higher
Cc1cc(F)ccc1-c1cnc2[nH]cc(C(=O)c3cccc(NS(C)(=O)=O)c3F)c2c1 [Example 37, N-(2-Fluoro-3-(5-(4-fluoro-2-methylphenyl)-1H-pyrrolo[2,3-b]pyridine-3-carbonyl)phenyl)methanesulfonamide] | 13.2 | 0.5 to 1 | > 10 | < 10 | N/E* (PoC for JNK1 = 100) | 14.1 | 
CCCCS(=O)(=O)Nc1cccc(C(=O)c2c[nH]c3ncc(-c4ccc(Cl)cc4)cc23)c1F [Example 50] | 7.0 | < 0.5 | > 10 | 10 to 30 | N/E* (PoC for JNK1 = 100) | N/E* (PoC for JNK1 = 100) | 
CCCCS(=O)(=O)Nc1cccc(C(=O)c2c[nH]c3ncc(-c4ccc5c(c4)OCCO5)cc23)c1F [Example 54] | 36 | < 0.5 | 1 to 10 | < 10 | 55 | 61 | 

Second part, led by results:

Selectivity BRaf/MKK4 [1] | IC50 [2] [µM] | IC50 [3] [µM] | remaining binding at 0.1 µM [4] [%] | Selectivity JNK1/MKK4 [5] | Selectivity MKK7/MKK4 [6] | SMILES | survival rate [7]
5.3 | < 0.5 | 1 to 10 | 10 to 30 | N/E* (PoC for JNK1 = 100) | 5.3 | CS(=O)(=O)Nc1cccc(C(=O)c2c[nH]c3ncc(-c4ccccc4Cl)cc23)c1F [Example 38, N-(3-(5-(2-Chlorophenyl)-1H-pyrrolo[2,3-b]pyridine-3-carbonyl)-2-fluorophenyl) methanesulfonamide] | 
4.7 | < 0.5 | 1 to 10 | 10 to 30 | N/E* (PoC for JNK1 = 100) | 5.6 | CCCS(=O)(=O)Nc1ccc(F)c(C(=O)c2c[nH]c3ncc(-c4ccc(F)cc4Cl)cc23)c1F [Example 40, N-(3-(5-(2-Chloro-4-fluorophenyl)-1H-pyrrolo[2,3-b]pyridine-3-carbonyl)-2,4-difluorophenyl)propane-1-sulfonamide] | 
N/E* (PoC for JNK1 = 100) | < 0.5 | 1 to 10 | < 10 | N/E* (PoC for JNK1 = 100) | 10 | COc1ccc(-c2cnc3[nH]cc(C(=O)c4cccc(NS(C)(=O)=O)c4F)c3c2)c(Cl)c1 [Example 46] | 
